Assay results taken from doi:10.1101/2025.07.02.662713v1, “A FRET-based high-throughput screening assay for the discovery of Mycobacterium tuberculosis DNA ADP-ribosylglycohydrolase DarG inhibitors” (biorxiv, 2025).

Legend:
[1] = target: T1, MtbDarG MD; CFP-MtbDarG MD (Mycobacterium tuberculosis, UniProt O53605); assay: FRET displacement of PARylated YFP-GAP; format: binding
T1 construct: gene darG

[2] = target: T2, T. aq. DarG; T.aq. DarG (Thermus aquaticus, UniProt P0DV57); assay: gel-based ADP-ribosyl-ssDNA hydrolysis assay; format: biochemical; details: 1 µM hydrolase, pranlukast 2-250 µM, pre-incubation 10 min; Tris pH 7.5, 37 °C, 30 min
T2 construct: recombinant, prepared as previously published
T2 sequence (P0DV57 1-360): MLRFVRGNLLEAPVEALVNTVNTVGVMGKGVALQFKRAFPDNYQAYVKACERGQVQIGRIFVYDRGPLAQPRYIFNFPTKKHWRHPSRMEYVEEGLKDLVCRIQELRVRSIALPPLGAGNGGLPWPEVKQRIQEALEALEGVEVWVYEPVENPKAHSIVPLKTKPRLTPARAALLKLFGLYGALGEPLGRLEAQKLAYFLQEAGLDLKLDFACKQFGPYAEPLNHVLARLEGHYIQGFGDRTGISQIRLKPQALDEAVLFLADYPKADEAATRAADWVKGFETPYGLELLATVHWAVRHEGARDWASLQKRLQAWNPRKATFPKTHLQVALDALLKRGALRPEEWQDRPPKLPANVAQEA
Text: gel-based ADP-ribosyl-ssDNA hydrolysis assay on T. aq. DarG; T.aq.

[3] = target: T3, MtbDarG (hydrolysis assay) (Mycobacterium tuberculosis, UniProt O53605); assay: gel-based ADP-ribosyl-ssDNA hydrolysis assay; format: biochemical; details: 1 µM hydrolase, pranlukast 2-250 µM, pre-incubation 10 min; Tris pH 7.5, 37 °C, 30 min
T3 construct: gene darG
T3 sequence (O53605 whole entry): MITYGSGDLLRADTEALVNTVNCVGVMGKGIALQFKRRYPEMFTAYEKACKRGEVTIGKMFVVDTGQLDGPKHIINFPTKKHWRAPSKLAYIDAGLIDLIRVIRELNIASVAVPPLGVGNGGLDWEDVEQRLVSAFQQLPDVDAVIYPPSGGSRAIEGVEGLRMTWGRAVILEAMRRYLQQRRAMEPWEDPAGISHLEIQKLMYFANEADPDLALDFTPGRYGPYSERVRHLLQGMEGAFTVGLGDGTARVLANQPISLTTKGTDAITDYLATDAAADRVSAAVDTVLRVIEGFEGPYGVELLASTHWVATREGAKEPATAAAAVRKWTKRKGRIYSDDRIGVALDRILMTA

[4] = target: T4, PARP14 MD1 (Homo sapiens, UniProt Q460N5); assay: FRET displacement of MARylated YFP-GAP; format: binding
T4 construct: macrodomain 1 only, CFP fusion, produced as described earlier
T4 sequence (Q460N5 791-978 limits assumed): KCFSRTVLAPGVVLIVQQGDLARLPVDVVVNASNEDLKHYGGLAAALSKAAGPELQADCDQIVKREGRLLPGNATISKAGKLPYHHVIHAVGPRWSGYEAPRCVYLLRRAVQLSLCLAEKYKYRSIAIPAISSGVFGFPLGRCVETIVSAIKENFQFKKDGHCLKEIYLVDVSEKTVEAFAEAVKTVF

[5] = target: T5, PARP9 MD1 (Homo sapiens, UniProt Q8IXQ6); assay: FRET displacement of MARylated YFP-GAP; format: binding
T5 construct: macrodomain 1 only, CFP fusion, produced as described earlier

[6] = target: T6, PARP15 MD1 (Homo sapiens, UniProt Q460N3); assay: FRET displacement of MARylated YFP-GAP; format: binding
T6 construct: macrodomain 1 only, CFP fusion, produced as described earlier
T6 sequence (Q460N3 78-267 limits assumed): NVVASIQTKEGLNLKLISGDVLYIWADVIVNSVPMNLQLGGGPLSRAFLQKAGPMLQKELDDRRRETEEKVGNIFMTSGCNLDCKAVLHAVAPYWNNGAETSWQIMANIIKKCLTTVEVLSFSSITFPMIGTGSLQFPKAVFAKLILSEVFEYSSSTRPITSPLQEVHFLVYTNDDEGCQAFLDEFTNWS

[7] = target: T7, SCO6735 (Streptomyces coelicolor, UniProt Q9X7P1); assay: gel-based ADP-ribosyl-ssDNA hydrolysis assay; format: biochemical; details: 1 µM hydrolase, pranlukast 2-250 µM, pre-incubation 10 min; Tris pH 7.5, 37 °C, 30 min
T7 construct: recombinant, prepared as previously published
T7 sequence (Q9X7P1 1-161): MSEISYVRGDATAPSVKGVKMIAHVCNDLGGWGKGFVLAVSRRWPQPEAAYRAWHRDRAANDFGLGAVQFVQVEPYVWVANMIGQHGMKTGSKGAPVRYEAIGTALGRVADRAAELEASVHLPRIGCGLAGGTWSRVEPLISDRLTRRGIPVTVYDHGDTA

T1 sequence (O53605 1-155): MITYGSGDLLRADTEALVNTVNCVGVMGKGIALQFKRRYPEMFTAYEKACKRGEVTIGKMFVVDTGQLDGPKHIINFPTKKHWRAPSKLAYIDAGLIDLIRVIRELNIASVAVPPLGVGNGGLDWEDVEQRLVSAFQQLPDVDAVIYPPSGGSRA

Compound | IC50 [1] [µM] | gel-based ADP-ribosyl-ssDNA hydrolysis assay [2] | gel-based ADP-ribosyl-ssDNA hydrolysis assay [3] | IC50 [4] [µM] | IC50 [5] [µM] | IC50 [6] [µM] | gel-based ADP-ribosyl-ssDNA hydrolysis assay [7]
COc1ccc(-c2ccccc2)cc1NS(=O)(=O)c1cc(Cl)cc(Cl)c1O [BMS303141] | 18.7 |  |  |  |  |  | 
Cc1cc(SCc2sc(-c3ccc(C(F)(F)F)cc3)nc2C)ccc1OCC(=O)O [GW501516] | 56.5 |  |  |  |  |  | 
O=C(Nc1cccc2c(=O)cc(-c3nn[nH]n3)oc12)c1ccc(OCCCCc2ccccc2)cc1 [pranlukast] | 4 | pranlukast exhibited an even higher inhibitory potency against DarG from Thermus aquaticus bacterium | pranlukast inhibited the enzymatic activity of MtbDarG on this ADP-ribosylated ssDNA substrate | ~100 | ~100 | ~100 | DarG from Thermus aquaticus bacterium (T.aq. DarG) and SCO6735
O=C(O)C(=O)c1cn(Cc2ccccc2)c2ccc(-c3ccc(OC(F)(F)F)cc3)cc12 [tiplaxtinin] | 5.7 |  |  |  |  |  | 
